Experimental data from PubChem BioAssay AID2060908 (Molecular Pharmacology Branch, DTP, NCI, 2025).
Where “and” joins values, the source holds several entries; their conditions need not be identical. Equal values may be shown once.

Test system: 186277-243-T-J2-PDC complex spheroids, viability
Experiment: Anticancer human tumor 186277-243-T-J2-PDC patient-derived colon adenocarcinoma cell line growth inhibition [RAS]
Details: for IC50: curve of first compound; for viability, T/C: stronger effect = lower value
Description: RAS pathway inhibitors in Combinations in Complex Spheroids
A high-throughput screen of multi-cell type tumor spheroids was designed to identify active combinations of RAS pathway inhibitors and targeted small molecules. Complex spheroids include a stromal component modeled by human endothelial cells (HUVEC) and fibroblasts modeled by human mesenchymal stem cells (MSCs). The concentration ranges selected for each drug and investigational agent were based upon clinically achievable concentrations if the clinical Cmax of the agent was known.
Compounds. The drugs and investigational agents: abemaciclib (NSC768073), cobimetinib (NSC768068), divarasib (GDC6063, NSC841802), docetaxel (NSC628503), GDC-1971 (RLY-1971, NSC841576), gemcitabine (NSC613327), inavolisib (NSC800729), ipatasertib (NSC767898), KB-0742 (NSC834161), MRTX-1133 (NSC836407), osimertinib (NSC779217), RMC-4630 (NSC839698), RMC-6236 (NSC851965), RMC-6291 (NSC852671), Ro-3306 (NSC812927), sapanisertib (NSC764658), SN-38 (NSC673596), staurosporine (NSC755774), SY5609 (NSC837396), and tovorafenib (DAY101, NSC766906), were obtained from the National Cancer Institute (NCI) Developmental Therapeutics Program Chemical Repository. The FDA-approved anticancer drug set is available from the NCI Developmental Therapeutics Program. […] The stock solutions were prepared in dimethyl sulfoxide (DMSO, Sigma-Aldrich, St. Louis, MO, cat. D2650) at 800-fold the tested concentration and stored at -70 degrees C prior to their use. All drugs and investigational agents were tested over a range starting from a high concentration at or near the clinical Cmax and decreasing in half-log increments. If the clinical Cmax for an agent had not been determined, the highest concentration tested was 10 microM.
Cell Culture. All cells were maintained in an incubator at 37 degrees C and 5% CO2 with 95% humidity. The PDC lines were cultured according to standard operating procedures established by the NCI PDMR. All PDCs were thawed and cultured in Matrigel-coated flasks prepared with a working solution of 1X Ham's F-12 nutrient mix, without supplementation (Invitrogen, Waltham, MA, cat. 11765054), 100 U/mL penicillin-streptomycin (Invitrogen, cat. 15140122), and 2.5% Matrigel (Corning Inc., Corning, NY, cat. 354248) for the first three passages. The 362531-283-R-J2-PDC and 782815-120-R-J1-PDC lines were cultured in 6C/Colon 1B media, which includes advanced DMEM/F-12 (Thermo Fisher Scientific, cat. 12634028), 10 mM HEPES (Thermo Fisher Scientific, cat. 15630080), 1X GlutaMAX supplement (Thermo Fisher Scientific, cat. 35050061), 0.1 mg/mL primocin (InvivoGen, San Diego, CA, cat. ant-pm-2), 10% defined fetal bovine serum, heat inactivated (HyClone Laboratories Inc., Logan, UT, cat. SH30070.03HI), 50% L-WRN conditioned media (ATCC, cat. CRL-3276), 1.25 mM N-Acetyl-L-cysteine (Sigma-Aldrich, cat. A9165), 10 mM nicotinamide (Sigma-Aldrich, cat. N0636), 1X B-27 supplement (Thermo Fisher Scientific, cat. 17504044), 1X N-2 supplement (Thermo Fisher Scientific, cat. 17502048), 50 ng/mL human EGF (Thermo Fisher Scientific, cat. PHG0311), and 10 microM Y-27632 dihydrochloride (Tocris Bioscience, cat. 1254). The K12877-001-R-J1-PDC line was cultured in 6I media, which includes all 6C/Colon 1B media plus 10 ng/mL human FGF-10 (PeproTech, cat. 100-26), 1 ng/mL human FGF-2 (PeproTech, cat. 100-18B), 1 µM prostaglandin E2 (Tocris Bioscience, cat. 2296), […] hydrocortisone (Sigma-Aldrich, cat. H4001), and […] bovine insulin (Sigma-Aldrich, cat. I6634). The K86415-001-R-J1-PDC line was cultured in 6D media, which includes all 6C/Colon 1B media components minus the L-WRN conditioned media. The 485176-168-R4-J1-PDC was cultured in PANC media, which includes all 6C/Colon 1B media plus 100 ng/mL human FGF-10 (PeproTech, cat. 100-26), 500 nM SB-431542 (Selleckchem, cat. S1067), and 10 nM gastrin (Tocris Bioscience, cat. 3006). […]
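Note: spheroids exposed to compounds for 7 days before viability read.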

Compound `C=CC(=O)N1CCN(c2nc(OCC3CCCN3C)nc3c(F)c(-c4nc(N)cc(C)c4C(F)(F)F)c(Cl)cc23)C(C)C1` (configuration not stated) + CCn1c(-c2cc(N3CCN(C)CC3)cnc2C(C)OC)c2c3cc(ccc31)-c1csc(n1)CC(NC(=O)C1CC1C)C(=O)N1CCCC(N1)C(=O)OCC(C)(C)C2 has an IC50 (second compound 0.000949 µM) of over 1000 nM, an IC50 (second compound 0.003 µM) of over 1000 nM and an IC50 (second compound 0.00949 µM) of under 3.16 nM. It also gave an IC50 (second compound 0.03 µM) of under 3.16 nM, an IC50 (second compound 0.0949 µM) of under 3.16 nM and an IC50 (second compound 0.3 µM) of under 3.16 nM. For the same compound, the viability, T/C (second compound 0.000949 µM, first compound 0.00316 µM) was 100%, the viability, T/C (second compound 0.000949 µM, first compound 0.01 µM) was 95.3% and the viability, T/C (second compound 0.000949 µM, first compound 0.0316 µM) was 97.8%. For the same compound, the viability, T/C (second compound 0.000949 µM, first compound 0.1 µM) was 82%, the viability, T/C (second compound 0.000949 µM, first compound 0.316 µM) was 96% and the viability, T/C (second compound 0.000949 µM, first compound 1 µM) was 95.7%. For the same compound, the viability, T/C (second compound 0.003 µM, first compound 0.00316 µM) was 93.8%, the viability, T/C (second compound 0.003 µM, first compound 0.01 µM) was 79% and the viability, T/C (second compound 0.003 µM, first compound 0.0316 µM) was 74.8%. For the same compound, the viability, T/C (second compound 0.003 µM, first compound 0.1 µM) was 100%, the viability, T/C (second compound 0.003 µM, first compound 0.316 µM) was 90.7% and the viability, T/C (second compound 0.003 µM, first compound 1 µM) was 91.3%. The viability, T/C (second compound 0.00949 µM, first compound 0.00316 µM) was 50.9%, the viability, T/C (second compound 0.00949 µM, first compound 0.01 µM) was 43.2% and the viability, T/C (second compound 0.00949 µM, first compound 0.0316 µM) was 45.5%. The viability, T/C (second compound 0.00949 µM, first compound 0.1 µM) was 47%, the viability, T/C (second compound 0.00949 µM, first compound 0.316 µM) was 49.9% and the viability, T/C (second compound 0.00949 µM, first compound 1 µM) was 42.9%. The viability, T/C (second compound 0.03 µM, first compound 0.00316 µM) was 15.2%, the viability, T/C (second compound 0.03 µM, first compound 0.01 µM) was 15.7% and the viability, T/C (second compound 0.03 µM, first compound 0.0316 µM) was 14%. The viability, T/C (second compound 0.03 µM, first compound 0.1 µM) was 15.6%, the viability, T/C (second compound 0.03 µM, first compound 0.316 µM) was 16.7% and the viability, T/C (second compound 0.03 µM, first compound 1 µM) was 13.9%. The viability, T/C (second compound 0.0949 µM, first compound 0.00316 µM) was 7.43%, the viability, T/C (second compound 0.0949 µM, first compound 0.01 µM) was 6.42% and the viability, T/C (second compound 0.0949 µM, first compound 0.0316 µM) was 6.99%. The viability, T/C (second compound 0.0949 µM, first compound 0.1 µM) was 6.92%, the viability, T/C (second compound 0.0949 µM, first compound 0.316 µM) was 7.72% and the viability, T/C (second compound 0.0949 µM, first compound 1 µM) was 6.75%. It also gave a viability, T/C (second compound 0.3 µM, first compound 0.00316 µM) of 6.06%, a viability, T/C (second compound 0.3 µM, first compound 0.01 µM) of 5.29% and a viability, T/C (second compound 0.3 µM, first compound 0.0316 µM) of 6.03%. The viability, T/C (second compound 0.3 µM, first compound 0.1 µM) was 5.77%, the viability, T/C (second compound 0.3 µM, first compound 0.316 µM) was 6.02% and the viability, T/C (second compound 0.3 µM, first compound 1 µM) was 5.32%.

For `CC(C)n1nc(-c2ccc3oc(N)nc3c2)c2c(N)ncnc21`, the viability, T/C (compound 0.000316 µM) was 107% [middle of 4 runs], the viability, T/C (compound 0.001 µM) was 96.7% [middle of 4 runs] and the viability, T/C (compound 0.00316 µM) was 101% and 98% and 107% (2×). The viability, T/C (compound 0.01 µM) was 92.9% [middle of 4 runs] and the viability, T/C (compound 0.1 µM) was 47.7% [middle of 4 runs].
